Source: patent US20250213700A1, “COMPOUNDS, COMPOSITIONS, AND METHODS FOR CELL-SPECIFIC PHARMACOLOGY” (Duke University, priority 2022, published 2025)

How the values were obtained:
endogenous GABAARs = test: all-optical assay of GABAAR antagonism in primary neuronal culture; assay type: cell-based, rat
Experimental: Cultured neuronal assays: Preparation of hippocampal cultures: Mixed glial and neuronal cultures were prepared from the hippocampus of postnatal day 0 to 1 Sprague-Dawley rat pups. Separate pools of dissociated cells were transfected via electroporation (LONZA, V4SP-3096) with plasmid constructs, and depending on assay directives, either plated individually or mixed with a different pool of electroporated cells after a 10 min recovery period. Cells were cultured on coverslips (Deckglaser) pre-treated with high molecular weight poly-D-lysine (Sigma, P7405; 0.05 mg/mL) in 24-well plates and maintained in NbActiv4 (BrainBits, Nb4-500) at 37 C, 5% CO2. Media was changed by half at DIV3 or 4 and then weekly thereafter; experiments were performed between DIV16 to DIV18.
Gabazine: Dissociated neurons were electroporated with constructs and cultured for 2 weeks. The assay was performed in the same BASE solution as described above, but with the addition of synaptic blockers CPP (NMDAR antagonist; Tocris) and NBQX (AMPAR antagonist; Abcam, ab120046) to isolate GABAR activity, and a small amount of GABA (GABAR agonist; Sigma) to ensure GABAR activity (=GABAR-BASE). […] Instead, a high dose of regular gabazine was used to completely silence any cells that may not have had realized full antagonism by the end of the assay. Imaging alignment, proof-reading and analysis were performed in a similar fashion to the AMPAR assay using MatLab.
It was next focused on blocking the GABAAR, a ubiquitous transducer of synaptic inhibition. […] The structure-activity literature of gabazine, a selective GABAAR antagonist, was explored. The core gabazine pharmacophore includes of a 3-amino, 6-phenoxy-pyridazine ring, with GABA embedded in the 2-position (2 butyric acid). Based on historical, low-potency predecessors of gabazine, a longer GABA moiety (2 pentanoic acid), and methyl substituents (e.g., 5-CH3) were explored (FIG. 2F). For each variant, the 6-phenoxy moiety was modified to make a gabazinealkyne module, which was click-conjugated to DART.2. Several variants were made, including gabazine.1^DART.2 (2 butyric acid, 5-H), gabazine.5DART.2 (2 pentanoic acid, 5-H), and gabazine.7DART.2 (2 pentanoic acid, 5-CH3). An all-optical assay of endogenous GABAARs in primary neuronal culture was then developed. […] Excitatory synapses were blocked, such that opto-stimulation with ChR2 became the only source of neural excitation.

AMPAR = test: whole-mount retina, AMPAR-mediated evoked EPSC in retinal ganglion cells; assay type: cell-based, mouse; settings: 300 nM, 15 min
Experimental: (FIG. 6A) Viral strategy (top panel). […] Experimental overview (second panel from the top to bottom panel). Top: whole retina; synaptic current is evoked (stim) and recorded (voltage-clamp of dTomato+ RGC), with ionic and pharmaceutical conditions chosen to isolate the AMPAR or GABAAR. A 10 min baseline is followed by 15 min application of 300 nM Rx^DART.2+30 nM Alexa^647.1DART.2. […] (FIG. 6B) CMPDA.2^DART.2 (left). Electropositive spacer (PDB 3RNN). […] AMPAR structural model (middle) (composite of PDB 5WEO, 3RNN, and 1FTL). Cylinder depicts cell membrane. […] YM90K.1^DART.2 (right). Structural model (PDB 1FTL). […] (FIG. 6C) diazepam.1^DART.2 (left). Structural model (PDB 6HUP). […] GABAAR (middle) structural model (composite of PDB 6HUP and 6HUK). […] Structural model (PDB 6HUK).
Preparation of Retina: Mice were intravitreal injected AAV10 HaloTag™-dTomato to eyes. After 8-12 weeks, the mice killed by cervical dislocation. Both eyes were removed and dissected under a stereo-microscope. Retinas were isolated from the eyecups and placed in oxygenated (95% O2/5% CO2) cold-Ames medium (Sigma-Aldrich), supplemented with 21 mM NaHCO3. After the vitreous body was removed, a retina was cut into 3 pieces, leaving each retina piece attached to a filter paper with 2 mm hole by retina ganglion-cell-side-down. The pieces of retina were stored in bubbled Ames solution at room temperature, then transferred to recording chamber with retina ganglion-cell-side-up for recording.
Whole-cell patch-clamp recording: The brain slices or retinas were perfused with bubbled aCSF at 29-30° C. with a 2 ml/min flow rate. Recordings were made by whole cell patch recording techniques using a Multiclamp 700B amplifier (Molecular Devices, Axon Instruments Inc., Union City, CA). The signals were filtered at 10 KHz and acquired using Digitate 1440A and pClamp 10.7 (Molecular Devices). The recording pipettes (4 MΩ-6 MΩ) were filled with internal solutions. For GABAA receptor-mediated evoked inhibitory postsynaptic currents ([…]) recording, the pipettes filled with Cesium Chloride-based internal solution (in mM) 135 CsCl, 2 MgCl2, 0.5 EGTA, 10 HEPES, 4 Mg-ATP, 0.5 Na-GTP, 10 Na2-phosphocreatine, and QX314 (lidocaine N-ethyl bromide), pH adjusted to 7.3 with CsOH (290 mosm). For AMPA-receptor mediated evoked excitatory postsynaptic currents (eEPSCs) recording, the pipette solution contained (in mM) 130 CsMeS, 1 MgCl2, 0.5 EGTA, 10 HEPES, 4 Mg-ATP, 0.5 Na-GTP, 10 Na2-phosphocreatine, and 4 QX314, pH adjusted to 7.3 with CsOH (290 mosm). For experiment of brain slices and retinas, the eIPSCs or eEPSCs were elicited by electrical stimuli at 0.067 Hz in 0.3-ms duration and 150-300-ρA (60-70% maximum responses) stimulation intensity at a holding potential of −70 mV. The stimulating electrode was placed within 60-100 μm from the recording neuron under voltage-clamp mode. GABA-receptor mediated eIPSCs were isolated in the presence of DNQX ([…] AMPAR antagonist) and AP-V ([…] antagonist) in the bath solution. For AMPA-receptor mediated eEPSCs, added picrotoxin ([…], GABAAR antagonist) and AP-V ([…]) to the bath solution.

## COc1cc(CCCCl)ccc1CCOCCNC(=O)c1ccc(CNC(=O)CCOCCOCCOCCOCCOCCOCCOCCOCCOCCOCCOCCOCCOCCOCCOCCOCCOCCOCCOCCOCCOCCOCCOCCOCCOCCOCCOCCOCCOCCOCCOCCOCCOCCOCCOCCOCCn2cc(COCCOCCOCCOCCOCCOCCOCCCCCCOc3ccc(-c4nn(CCCCC(=O)O)c(=N)cc4C)cc3)nn2)cc1 [gabazine.7DART.2]
Endogenous GABAARs
  increase in DW vs gabazine.1DART.2: ~6 fold
  increase in HTL50 vs gabazine.1DART.2: ~3 fold
  increase in Rx50 vs gabazine.1DART.2: ~20 fold
Endogenous GABAARs; ddHTP vs +HTP cells, 15 min, 15 uM GABA
  DW (t=15 m): 3,000

## COc1cc(CCCCl)ccc1CCOCCNC(=O)c1ccc(CNC(=O)CCOCCOCCOCCOCCOCCOCCOCCOCCOCCOCCOCCOCCOCCOCCOCCOCCOCCOCCOCCOCCOCCOCCOCCOCCOCCOCCOCCOCCOCCOCCOCCOCCOCCOCCOCCOCCn2cc(COCCOCCOCCOCCOCCOCCNC(=O)CCCn3c(=O)c(=O)[nH]c4cc([N+](=O)[O-])c(-n5ccnc5)cc43)nn2)cc1 [YM90K.1DART.2]
AMPAR
  AMPAR evoked EPSC block, +HTP cells: blocked the AMPAR-mediated EPSC
AMPAR; listed as YM90K.1^DART.2
  AMPAR evoked EPSC block, +HTP cells: blocked on ^+HTP cells
